# Test results taken from ChEMBL document CHEMBL1201862, “PubChem BioAssay data set” (2004).
# The source made the active and inactive calls.
# Key:
# [1] = target: NACHT, LRR and PYD domains-containing protein 3 (Homo sapiens, UniProt Q96P20); experiment: NALP3 inhibitors in yeast, dose response, luminescent (AID 488799); assay type: functional
# Protein skinhead-1 = target: T1, Protein skinhead-1 (Caenorhabditis elegans, UniProt P34707); assay type: functional
# T1 sequence (P34707 whole entry): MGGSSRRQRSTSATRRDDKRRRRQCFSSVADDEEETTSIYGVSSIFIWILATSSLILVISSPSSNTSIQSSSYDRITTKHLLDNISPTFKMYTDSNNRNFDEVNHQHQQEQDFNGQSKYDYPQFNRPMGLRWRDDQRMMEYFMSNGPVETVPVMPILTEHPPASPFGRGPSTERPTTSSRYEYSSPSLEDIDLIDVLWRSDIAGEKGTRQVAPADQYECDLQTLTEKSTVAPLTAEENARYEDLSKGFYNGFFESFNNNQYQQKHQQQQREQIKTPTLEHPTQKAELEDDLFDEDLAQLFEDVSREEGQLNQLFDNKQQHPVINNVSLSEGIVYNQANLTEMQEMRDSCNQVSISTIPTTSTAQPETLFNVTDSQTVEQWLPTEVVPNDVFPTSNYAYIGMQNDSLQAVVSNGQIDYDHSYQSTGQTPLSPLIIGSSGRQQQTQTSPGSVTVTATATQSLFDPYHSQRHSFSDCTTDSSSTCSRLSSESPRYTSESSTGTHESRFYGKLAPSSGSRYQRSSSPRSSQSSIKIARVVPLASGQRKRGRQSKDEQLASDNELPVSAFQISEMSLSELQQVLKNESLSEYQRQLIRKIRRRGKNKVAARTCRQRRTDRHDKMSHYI
# [2] = target: Envelope glycoprotein gp160 (Human immunodeficiency virus 1, UniProt Q6QLK5); experiment: inhibitors of HIV fusion peptide binding, primary screen, biochemical, uHTS, fluorescence dequenching (AID 1986)
# Streptokinase A = target: T2, Streptokinase A (Streptococcus pyogenes serotype M1, UniProt P10520); experiment: S. pyogenes streptokinase expression inhibitors, potency, dose response, plasminogen activation absorbance, OD405 (AID 1914); assay type: functional, Streptococcus pyogenes M1 GAS;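 also: secreted streptokinase activity via plasminogen activation per viability signal from cell pellet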
# T2 sequence (P10520 whole entry): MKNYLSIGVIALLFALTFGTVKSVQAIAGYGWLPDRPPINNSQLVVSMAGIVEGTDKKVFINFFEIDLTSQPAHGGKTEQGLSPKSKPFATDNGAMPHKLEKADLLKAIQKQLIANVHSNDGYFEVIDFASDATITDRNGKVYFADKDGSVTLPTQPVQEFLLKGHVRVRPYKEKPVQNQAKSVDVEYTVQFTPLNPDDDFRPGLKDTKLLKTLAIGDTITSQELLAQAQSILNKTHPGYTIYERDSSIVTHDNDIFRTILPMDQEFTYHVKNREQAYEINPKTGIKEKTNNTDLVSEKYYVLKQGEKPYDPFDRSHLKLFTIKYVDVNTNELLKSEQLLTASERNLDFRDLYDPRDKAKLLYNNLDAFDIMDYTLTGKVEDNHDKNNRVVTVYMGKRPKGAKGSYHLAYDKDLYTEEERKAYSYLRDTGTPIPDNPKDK
# Streptococcus = experiment: Group A Streptococcus viability loss, dose response, counter-screen for streptokinase expression inhibitor project, luminescence, BacTiterGlo (AID 1915); assay type: functional, organism-based;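 also: potency for reduction of bacterial viability or growth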
# [3] = target: FAD-linked sulfhydryl oxidase ALR (Homo sapiens, UniProt P55789); experiment: inhibitors of human ALR sulfhydryl oxidase, dose response, biochemical, H2O2 detection, luminescence, cherry-pick (AID 493248)
# [4] = tested on: Streptococcus sp. 'group A'; experiment: growth inhibition of control SK(-) GAS strain, dose response, counter-screen for streptokinase expression inhibitor project, luminescence, kanamycin, BacTiterGlo, confirmation (AID 1900); assay type: functional, organism-based
# [5] = target: Intestinal-type alkaline phosphatase (Homo sapiens, UniProt P09923); experiment: Dose Response confirmation of uHTS hits from a small molecule inhibitors of human intestinal alkaline phosphatase via a luminescent assay. [Related pubchem assays (depositor defined):AID2544, AID2574]; assay type: functional
# [6] = target: T3, Short transient receptor potential channel 4 (Mus musculus, UniProt Q9QUQ5); experiment: TRPC4 positive allosteric modulators, dose response, cell-based, HEK293 TRPC4/mu-opioid, Fluo-4 calcium, EC20 DAMGO (AID 434941); assay type: functional
# T3 sequence (Q9QUQ5 whole entry): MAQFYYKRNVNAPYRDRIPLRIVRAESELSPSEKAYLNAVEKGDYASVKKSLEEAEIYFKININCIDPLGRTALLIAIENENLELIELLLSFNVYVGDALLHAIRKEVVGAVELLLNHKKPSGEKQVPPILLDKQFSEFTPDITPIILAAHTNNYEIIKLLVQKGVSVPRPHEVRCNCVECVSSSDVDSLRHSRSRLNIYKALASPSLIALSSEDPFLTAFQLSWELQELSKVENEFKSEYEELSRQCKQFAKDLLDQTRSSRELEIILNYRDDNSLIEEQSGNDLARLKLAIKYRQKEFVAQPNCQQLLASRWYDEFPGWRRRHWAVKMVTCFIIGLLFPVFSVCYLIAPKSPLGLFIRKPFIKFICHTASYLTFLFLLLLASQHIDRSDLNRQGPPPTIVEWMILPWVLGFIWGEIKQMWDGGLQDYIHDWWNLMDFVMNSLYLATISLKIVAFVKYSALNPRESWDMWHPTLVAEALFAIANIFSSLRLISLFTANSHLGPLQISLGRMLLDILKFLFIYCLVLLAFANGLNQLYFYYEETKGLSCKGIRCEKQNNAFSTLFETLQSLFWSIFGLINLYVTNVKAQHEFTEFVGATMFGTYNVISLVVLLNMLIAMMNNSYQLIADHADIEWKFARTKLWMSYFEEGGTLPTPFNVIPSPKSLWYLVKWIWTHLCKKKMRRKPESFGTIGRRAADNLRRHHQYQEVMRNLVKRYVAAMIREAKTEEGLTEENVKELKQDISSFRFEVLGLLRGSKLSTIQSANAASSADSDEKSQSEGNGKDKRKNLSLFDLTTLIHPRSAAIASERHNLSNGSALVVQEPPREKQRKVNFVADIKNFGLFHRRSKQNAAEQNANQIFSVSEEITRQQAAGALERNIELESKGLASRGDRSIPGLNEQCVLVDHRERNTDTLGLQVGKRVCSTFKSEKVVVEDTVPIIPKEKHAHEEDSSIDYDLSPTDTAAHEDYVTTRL
# CAAX prenyl protease 2 = CAAX prenyl protease 2 (Saccharomyces cerevisiae S288c, UniProt Q03530); assay type: biochemical
# [7] = target: T4, DNA repair and recombination protein RAD54-like (Homo sapiens, UniProt Q92698); experiment: inhibitors of human RAD54 branch migration, confirmation, biochemical, fluorescence, cherry-picked samples, dose series (AID 651657); assay type: functional
# T4 sequence (Q92698 whole entry): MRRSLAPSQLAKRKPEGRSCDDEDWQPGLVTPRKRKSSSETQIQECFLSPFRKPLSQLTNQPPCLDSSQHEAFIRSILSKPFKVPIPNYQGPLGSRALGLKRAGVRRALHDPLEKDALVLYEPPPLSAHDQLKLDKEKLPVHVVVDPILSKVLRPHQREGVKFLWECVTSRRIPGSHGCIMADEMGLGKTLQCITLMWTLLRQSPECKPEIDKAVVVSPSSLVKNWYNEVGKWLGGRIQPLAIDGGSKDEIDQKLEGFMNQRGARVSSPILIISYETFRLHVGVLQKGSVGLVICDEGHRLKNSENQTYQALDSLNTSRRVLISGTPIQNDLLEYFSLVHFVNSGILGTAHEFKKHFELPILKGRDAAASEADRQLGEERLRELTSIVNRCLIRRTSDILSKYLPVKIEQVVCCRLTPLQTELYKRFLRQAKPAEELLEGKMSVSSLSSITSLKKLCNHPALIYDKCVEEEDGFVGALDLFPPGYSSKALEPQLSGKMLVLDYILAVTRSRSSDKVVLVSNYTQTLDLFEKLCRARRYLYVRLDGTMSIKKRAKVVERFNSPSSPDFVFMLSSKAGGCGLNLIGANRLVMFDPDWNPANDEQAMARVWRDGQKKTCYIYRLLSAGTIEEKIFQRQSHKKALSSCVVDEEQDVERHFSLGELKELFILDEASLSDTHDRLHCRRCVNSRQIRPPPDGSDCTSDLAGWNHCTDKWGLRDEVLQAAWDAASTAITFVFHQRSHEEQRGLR
# [8] = target: T5, Ubiquitin-conjugating enzyme E2 N (Homo sapiens, UniProt P61088); assay type: functional;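 also: Dose-response confirmation in a TR-FRET assay detecting UBC13-driven polyubiquitin chain formation, inhibition measured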
# T5 sequence (P61088 whole entry): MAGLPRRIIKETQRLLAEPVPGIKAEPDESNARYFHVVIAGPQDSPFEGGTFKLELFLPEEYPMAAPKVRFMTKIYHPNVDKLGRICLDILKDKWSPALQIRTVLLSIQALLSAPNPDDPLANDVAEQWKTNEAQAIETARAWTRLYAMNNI
# [9] = target: Voltage-dependent T-type calcium channel subunit alpha-1H (Homo sapiens, UniProt O95180); experiment: Cav3.2 T-type channel inhibitors, cell-based, synthetic library set 1, calcium flux (AID 493022); assay type: functional
# [10] = A Cell Based Assay for the Identification of Probe candidate Compounds with Anti- Venezuelan Equine Encephalitis virus. [Related pubchem assays: 2409, 2419, 1621, 2238, 2405, 2024, 2065, 2402, 2414, 1635, 1650, 2244 ]; assay type: functional
# [11] = target: Endoplasmic reticulum aminopeptidase 1 (Homo sapiens, UniProt Q9NZ08); experiment: ERAP1 aminopeptidase inhibitors, dose response, biochemical, cherry-pick, set 2, plate reader (AID 743314)
# Vero [12] = experiment: West Nile virus CPE inhibition, SAR follow-up, cell-based, synthesized analogs (AID 2238); assay type: functional; conditions: Chlorocebus sabaeus
# Vero [13] = experiment: cytotoxicity of synthesized analogs in Vero 76, SAR follow-up, cytotoxicity control for West Nile virus antiviral project, Vero 76 cells (AID 2414); assay type: functional; conditions: Chlorocebus sabaeus
# Vero [14] = experiment: cells; assay type: functional, cell-based; conditions: Chlorocebus sabaeus
# Vero [15] = experiment: Vero E6 cell cytotoxicity, SAR follow-up, cytotoxicity control for West Nile virus antiviral project, synthesized analogs (AID 2244); assay type: functional; conditions: Chlorocebus sabaeus
# Vero [16] = experiment: cells; assay type: functional; conditions: Chlorocebus sabaeus
# Vero [17] = experiment: West Nile virus antiviral activity, cell-based, CPE readout (AID 1621); assay type: functional; conditions: Chlorocebus sabaeus
# [18] = HEp-2 cell cytotoxicity, dose response, cytotoxicity control for RSV inhibitor project, HTS (AID 2410); assay type: functional; conditions: human respiratory syncytial virus
# Vero [19] = experiment: cytotoxicity of synthesized analogs in Vero cells, SAR follow-up, cytotoxicity control for West Nile virus antiviral project, cell-based, set II (AID 2402); assay type: functional; conditions: Chlorocebus sabaeus
# Beta-galactosidase = Beta-galactosidase (Escherichia coli, UniProt Q8VNN2); experiment: beta-galactosidase enzyme inhibitors and activators, dose response, artefact control for CCR6 antagonist project, biochemical, E. coli enzyme, set 3 (AID 504712); assay type: functional
# [20] = C. albicans growth with fluconazole, confirmation, fluorescence, retest (AID 2467); assay type: functional, cell-based
# [21] = THP-1 cell cytotoxicity, dose response, cytotoxicity control for non-replicating M. tuberculosis project (AID 489025); assay type: functional
# [22] = NIH-3T3 fibroblast cytotoxicity, dose response, cytotoxicity control, cell-based, fluorescence, Alamar Blue, secondary assay (AID 2327); assay type: functional;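 also: NIH-3T3 mouse fibroblasts cultured with fluconazole at 8 µg/mL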
# [23] = Vero E6 cell cytotoxicity, dose response, cytotoxicity control for non-replicating M. tuberculosis project, secondary assay (AID 492998); assay type: functional, VeroE6; conditions: Vero C1008
# cells = assay type: functional
# [24] = HepG2 cell cytotoxicity, dose response, cytotoxicity control for non-replicating M. tuberculosis project (AID 489018); assay type: functional; conditions: Mycobacterium tuberculosis
# Sequence of Intestinal-type alkaline phosphatase (P09923 whole entry): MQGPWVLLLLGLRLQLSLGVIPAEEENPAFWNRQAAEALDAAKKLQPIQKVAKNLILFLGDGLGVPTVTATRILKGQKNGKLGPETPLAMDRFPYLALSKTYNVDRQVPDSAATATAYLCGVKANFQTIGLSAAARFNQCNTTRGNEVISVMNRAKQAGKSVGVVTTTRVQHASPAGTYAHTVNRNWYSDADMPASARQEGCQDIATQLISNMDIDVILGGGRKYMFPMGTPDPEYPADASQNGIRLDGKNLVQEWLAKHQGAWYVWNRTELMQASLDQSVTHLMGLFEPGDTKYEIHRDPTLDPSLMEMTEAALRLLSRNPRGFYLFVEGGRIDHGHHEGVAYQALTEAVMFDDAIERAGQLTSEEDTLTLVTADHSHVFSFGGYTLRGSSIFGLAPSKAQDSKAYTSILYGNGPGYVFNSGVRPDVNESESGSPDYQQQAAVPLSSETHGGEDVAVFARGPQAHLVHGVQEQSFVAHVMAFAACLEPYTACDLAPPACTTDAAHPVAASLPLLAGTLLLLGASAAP
# Sequence of Endoplasmic reticulum aminopeptidase 1 (Q9NZ08 whole entry): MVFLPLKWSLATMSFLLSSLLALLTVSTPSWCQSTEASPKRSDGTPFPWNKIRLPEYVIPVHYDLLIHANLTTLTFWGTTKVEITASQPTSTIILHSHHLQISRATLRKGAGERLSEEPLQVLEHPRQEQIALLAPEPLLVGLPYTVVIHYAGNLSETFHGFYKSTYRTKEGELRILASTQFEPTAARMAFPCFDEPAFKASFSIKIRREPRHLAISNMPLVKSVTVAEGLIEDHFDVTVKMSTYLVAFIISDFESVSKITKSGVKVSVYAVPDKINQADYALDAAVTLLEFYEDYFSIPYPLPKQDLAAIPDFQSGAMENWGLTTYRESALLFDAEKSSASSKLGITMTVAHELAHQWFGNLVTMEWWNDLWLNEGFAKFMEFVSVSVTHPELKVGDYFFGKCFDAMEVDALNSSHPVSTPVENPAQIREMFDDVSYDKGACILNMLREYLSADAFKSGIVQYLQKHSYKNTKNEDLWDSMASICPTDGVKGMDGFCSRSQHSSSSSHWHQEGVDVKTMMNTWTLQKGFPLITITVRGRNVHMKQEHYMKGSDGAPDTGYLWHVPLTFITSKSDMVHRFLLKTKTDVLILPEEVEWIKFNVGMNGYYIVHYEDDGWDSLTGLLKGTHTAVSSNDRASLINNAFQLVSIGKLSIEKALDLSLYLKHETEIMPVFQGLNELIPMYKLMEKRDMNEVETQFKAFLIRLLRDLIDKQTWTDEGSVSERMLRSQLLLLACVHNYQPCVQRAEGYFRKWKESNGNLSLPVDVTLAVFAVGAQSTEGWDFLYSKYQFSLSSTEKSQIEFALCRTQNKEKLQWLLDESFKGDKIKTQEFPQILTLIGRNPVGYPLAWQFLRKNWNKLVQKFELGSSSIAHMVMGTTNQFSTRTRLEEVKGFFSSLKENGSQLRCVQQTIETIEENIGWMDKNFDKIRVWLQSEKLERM
# Sequence of Beta-galactosidase (Q8VNN2 whole entry): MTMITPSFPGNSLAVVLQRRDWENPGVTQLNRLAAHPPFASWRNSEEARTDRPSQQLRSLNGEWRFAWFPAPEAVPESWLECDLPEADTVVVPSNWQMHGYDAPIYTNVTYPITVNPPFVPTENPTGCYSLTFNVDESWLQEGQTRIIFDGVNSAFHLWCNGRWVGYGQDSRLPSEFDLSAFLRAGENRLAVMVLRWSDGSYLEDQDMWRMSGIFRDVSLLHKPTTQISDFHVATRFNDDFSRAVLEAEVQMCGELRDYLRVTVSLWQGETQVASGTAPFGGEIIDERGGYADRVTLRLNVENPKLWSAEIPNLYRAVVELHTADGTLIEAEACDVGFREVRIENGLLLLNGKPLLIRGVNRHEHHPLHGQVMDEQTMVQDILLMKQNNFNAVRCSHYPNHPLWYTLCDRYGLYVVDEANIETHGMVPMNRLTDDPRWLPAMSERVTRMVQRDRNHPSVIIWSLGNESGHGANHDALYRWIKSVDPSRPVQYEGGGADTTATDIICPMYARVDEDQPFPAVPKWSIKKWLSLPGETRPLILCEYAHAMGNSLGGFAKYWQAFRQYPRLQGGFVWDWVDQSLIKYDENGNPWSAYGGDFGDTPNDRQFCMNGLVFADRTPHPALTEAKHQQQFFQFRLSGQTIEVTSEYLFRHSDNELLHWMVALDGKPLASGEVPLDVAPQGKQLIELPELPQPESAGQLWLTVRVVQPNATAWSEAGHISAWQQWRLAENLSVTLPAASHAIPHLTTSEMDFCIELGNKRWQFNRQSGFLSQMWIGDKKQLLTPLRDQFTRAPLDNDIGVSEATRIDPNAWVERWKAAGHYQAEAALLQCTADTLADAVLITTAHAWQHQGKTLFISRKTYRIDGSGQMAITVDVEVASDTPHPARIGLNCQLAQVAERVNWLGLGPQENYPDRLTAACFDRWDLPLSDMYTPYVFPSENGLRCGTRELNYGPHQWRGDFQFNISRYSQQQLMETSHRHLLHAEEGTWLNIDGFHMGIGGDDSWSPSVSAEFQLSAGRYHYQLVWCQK
# Sequence of Voltage-dependent T-type calcium channel subunit alpha-1H (O95180 whole entry): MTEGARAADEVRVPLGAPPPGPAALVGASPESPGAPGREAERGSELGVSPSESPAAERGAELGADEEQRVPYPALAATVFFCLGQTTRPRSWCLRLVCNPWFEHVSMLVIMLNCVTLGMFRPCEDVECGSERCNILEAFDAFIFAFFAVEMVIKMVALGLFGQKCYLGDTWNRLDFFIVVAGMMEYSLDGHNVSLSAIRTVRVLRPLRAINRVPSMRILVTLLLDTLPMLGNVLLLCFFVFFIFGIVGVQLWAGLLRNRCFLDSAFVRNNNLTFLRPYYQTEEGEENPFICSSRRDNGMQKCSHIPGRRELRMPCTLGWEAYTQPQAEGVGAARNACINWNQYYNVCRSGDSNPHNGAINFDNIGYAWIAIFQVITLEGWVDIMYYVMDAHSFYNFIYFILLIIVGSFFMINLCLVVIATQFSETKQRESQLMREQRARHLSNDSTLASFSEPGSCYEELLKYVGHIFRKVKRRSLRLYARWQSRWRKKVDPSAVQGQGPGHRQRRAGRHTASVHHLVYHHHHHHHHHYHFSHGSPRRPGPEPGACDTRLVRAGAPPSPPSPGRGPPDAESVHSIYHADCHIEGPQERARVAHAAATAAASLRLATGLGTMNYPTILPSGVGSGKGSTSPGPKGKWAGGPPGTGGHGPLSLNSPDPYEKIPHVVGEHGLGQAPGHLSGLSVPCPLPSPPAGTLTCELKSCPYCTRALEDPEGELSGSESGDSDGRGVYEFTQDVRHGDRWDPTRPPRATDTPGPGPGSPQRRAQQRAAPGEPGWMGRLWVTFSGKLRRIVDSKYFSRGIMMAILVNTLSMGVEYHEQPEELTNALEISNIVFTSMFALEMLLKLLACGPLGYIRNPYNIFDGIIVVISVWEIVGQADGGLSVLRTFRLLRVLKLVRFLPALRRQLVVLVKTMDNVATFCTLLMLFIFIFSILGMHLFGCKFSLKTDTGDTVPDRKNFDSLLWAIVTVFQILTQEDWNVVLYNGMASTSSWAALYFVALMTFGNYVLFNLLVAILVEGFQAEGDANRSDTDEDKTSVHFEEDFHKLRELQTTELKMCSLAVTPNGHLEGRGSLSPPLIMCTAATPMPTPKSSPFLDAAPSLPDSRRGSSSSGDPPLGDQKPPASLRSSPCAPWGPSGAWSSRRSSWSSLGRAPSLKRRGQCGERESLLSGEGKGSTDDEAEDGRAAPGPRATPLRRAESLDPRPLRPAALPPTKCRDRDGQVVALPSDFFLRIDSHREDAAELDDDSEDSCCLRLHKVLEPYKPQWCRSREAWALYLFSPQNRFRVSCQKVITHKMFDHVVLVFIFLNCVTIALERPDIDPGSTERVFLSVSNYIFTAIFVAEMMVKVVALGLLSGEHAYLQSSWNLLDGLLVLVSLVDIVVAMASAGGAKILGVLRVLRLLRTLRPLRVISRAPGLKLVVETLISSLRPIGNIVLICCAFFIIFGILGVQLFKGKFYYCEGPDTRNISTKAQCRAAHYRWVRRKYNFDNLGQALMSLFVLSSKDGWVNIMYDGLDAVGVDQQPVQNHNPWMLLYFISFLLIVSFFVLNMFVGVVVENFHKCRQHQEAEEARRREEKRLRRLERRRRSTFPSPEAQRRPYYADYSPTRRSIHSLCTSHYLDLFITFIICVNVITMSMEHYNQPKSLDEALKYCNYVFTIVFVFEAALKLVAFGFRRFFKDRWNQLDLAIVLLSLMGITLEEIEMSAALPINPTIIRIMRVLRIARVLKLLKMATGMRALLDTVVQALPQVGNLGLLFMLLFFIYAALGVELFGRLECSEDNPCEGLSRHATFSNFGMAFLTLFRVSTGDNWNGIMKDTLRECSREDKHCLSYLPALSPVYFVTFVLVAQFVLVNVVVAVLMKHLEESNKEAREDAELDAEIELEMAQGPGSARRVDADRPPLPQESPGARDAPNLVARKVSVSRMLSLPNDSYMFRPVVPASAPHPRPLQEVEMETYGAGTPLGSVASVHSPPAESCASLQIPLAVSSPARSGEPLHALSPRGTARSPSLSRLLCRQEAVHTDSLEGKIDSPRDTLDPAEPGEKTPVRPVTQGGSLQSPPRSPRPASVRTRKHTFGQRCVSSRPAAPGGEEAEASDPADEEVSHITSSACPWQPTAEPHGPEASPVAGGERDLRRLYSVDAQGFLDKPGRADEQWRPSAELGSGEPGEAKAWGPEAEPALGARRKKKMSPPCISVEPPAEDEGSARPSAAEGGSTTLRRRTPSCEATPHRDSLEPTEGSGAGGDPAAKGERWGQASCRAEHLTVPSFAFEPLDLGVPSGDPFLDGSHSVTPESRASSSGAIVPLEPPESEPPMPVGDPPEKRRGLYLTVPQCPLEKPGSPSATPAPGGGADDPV
# Sequence of FAD-linked sulfhydryl oxidase ALR (P55789 whole entry): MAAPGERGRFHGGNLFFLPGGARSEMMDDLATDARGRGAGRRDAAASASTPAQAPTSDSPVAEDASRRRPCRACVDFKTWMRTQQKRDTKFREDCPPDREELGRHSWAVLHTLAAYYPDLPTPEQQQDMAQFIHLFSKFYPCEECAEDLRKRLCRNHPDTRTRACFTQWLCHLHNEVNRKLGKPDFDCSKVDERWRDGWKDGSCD
smiles,measurement,setting,value
Brc1ccc(-n2cnc(-c3ccccc3)c2)cc1,IC50,[1],35.4 µM (active)
same,IC50,Protein skinhead-1,> 100 µM (inactive)
O=C(O)c1cccc2c(-c3ccccc3)c(-c3ccccc3)[nH]c12,IC50,[2],16.8 µM (active)
same,EC50,Streptokinase A,15.6 µM (active)
same,EC50,Streptococcus,> 150 µM (not active)
same,AC50,[3],4.56 µM (active)
same,EC50,[4],6.24 µM (active)
CC(=O)N1CCOc2ccc(S(=O)(=O)N3CCCC(C)C3)cc21 (stereo not given),IC50,[5],> 100 µM (inactive)
CCCCN(C)CCNC(=O)c1cc2c(-c3cccc(OC)c3)nn(C)c2s1,EC50,[6],0.07 µM (active)
same,AC50,CAAX prenyl protease 2,16 µM (active)
same,AC50,[7],31.5 µM (active)
same,IC50,[8],> 20 µM (inactive)
Cc1ccc(-c2nnc(NC(=O)COc3ccccc3F)o2)cc1C,EC50,[9],2.3 µM (active)
CC1CCCC(C)N1CCCNC(=O)c1cc2c(s1)-c1ccccc1OC2 (stereo not given),IC50,[10],11.8 µM (active)
same,AC50,[11],12.5 µM (active)
same,IC50,Vero [12],> 40 µM (active)
same,CC50,Vero [13],24.3 µM (active)
same,IC50,Vero [14],> 25 µM (active)
same,CC50,Vero [15],12.4 µM (active)
same,CC50,Vero [16],> 25 µM (active)
same,IC50,Vero [17],19 µM (active)
same,CC50,[18],18.2 µM (active)
same,CC50,Vero [19],11 µM (active)
CN(C)CCCNc1cc(C(C)(C)C)nc2c(-c3ccc(Cl)cc3)cnn12,IC50,Beta-galactosidase,> 66.6 µM (inactive)
same,EC50,[20],> 38 µM (not active)
same,CC50,[21],11.4 µM (active)
same,EC50,Streptokinase A,> 150 µM (not active)
same,EC50,Streptococcus,8.08 µM (active)
same,EC50,[22],12.5 µM (active)
same,EC50,[4],1.91 µM (active)
same,IC50,[8],> 20 µM (inactive)
same,CC50,[23],10.8 µM (active)
same,IC50,cells,12.4 µM (active)
same,CC50,[24],13 µM (active)
same,IC50,Protein skinhead-1,> 100 µM (inactive)
